{
  "source": "patent US11793420B2",
  "about": "“Ingestible device for delivery of a dispensable substance” (Biora Therapeutics, Inc., priority 2016, dated 2023)",
  "molecular_target": "Human TNFα (Homo sapiens, UniProt P01375)",
  "sequence (P01375 77-233 limits assumed)": "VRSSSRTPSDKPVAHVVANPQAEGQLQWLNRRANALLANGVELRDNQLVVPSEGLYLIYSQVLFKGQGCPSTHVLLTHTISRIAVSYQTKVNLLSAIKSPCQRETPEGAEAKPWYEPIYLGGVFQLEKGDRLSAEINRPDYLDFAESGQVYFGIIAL",
  "assay": "AlphaLISA competitive inhibition assay of drug recovered from bellows or syringe",
  "data": [
    {"substance": "adalimumab [Exemptia]", "values": [
      {"measurement": "shift of bellows curves", "setting": "after 24 hours (FIG. 86), within the error bars", "result": "slight right shift"},
      {"measurement": "IC50 values of the drug dispensed from the bellows versus standard dispensation method", "setting": "bellows vs. standard dispensation method (Table 6)", "result": "comparable"},
      {"measurement": "impact of bellows on drug function", "setting": "silicone or PVC bellows, shelf lives of 4, 24 hours, or 336 hours", "result": "do not negatively impact the drug function"}
    ]}
  ]
}
